Assay results taken from PMC5218480 (PLoS ONE, 2017).

Test system: MV-4-11 cells
Assay: Gene expression microarray analysis (Affymetrix PrimeView) and GSEA
Format: cell-based, human
Parameters: RFU PODN (11730768_x_at) / Fold change /veh PODN (11730768_x_at) / RFU LINC00158 (11744669_a_at) / Fold change /veh LINC00158 (11744669_a_at) / RFU DUSP10 (11751237_a_at) / Fold change /veh DUSP10 (11751237_a_at) / RFU ID3 (11757404_x_at) / Fold change /veh ID3 (11757404_x_at) / RFU PLEKHG5 (11737974_s_at) / Fold change /veh PLEKHG5 (11737974_s_at) / RFU LRRC4B (11730491_at) / Fold change /veh LRRC4B (11730491_at) / RFU GIMAP4 (11747438_a_at) / Fold change /veh GIMAP4 (11747438_a_at) / RFU KRT8 (11758183_x_at) / Fold change /veh KRT8 (11758183_x_at) / RFU CNN1 (11734310_a_at) / Fold change /veh CNN1 (11734310_a_at) / RFU VPS37D (11726825_at) / Fold change /veh VPS37D (11726825_at) / RFU C10orf10 (11716522_x_at) / Fold change /veh C10orf10 (11716522_x_at) / RFU KIR2DL2 /// KIR2DL4 /// KIR2DL5A /// KIR2DL5B /// KIR2DS1 /// KIR2DS2 /// KIR2DS3 /// KIR2DS4 /// KIR3DL3 /// KIR3DL3 /// KIR3DS1 (11738374_at) / Fold change /veh KIR2DL2 /// KIR2DL4 /// KIR2DL5A /// KIR2DL5B /// KIR2DS1 /// KIR2DS2 /// KIR2DS3 /// KIR2DS4 /// KIR3DL3 /// KIR3DL3 /// KIR3DS1 (11738374_at) / RFU C1QL1 (11718748_at) / Fold change /veh C1QL1 (11718748_at) / RFU TMPRSS4 (11747572_a_at) / Fold change /veh TMPRSS4 (11747572_a_at) / RFU HAMP (11756126_x_at) / Fold change /veh HAMP (11756126_x_at) / RFU RNFT2 (11725882_a_at) / Fold change /veh RNFT2 (11725882_a_at) / RFU NR4A2 (11747474_a_at) / Fold change /veh NR4A2 (11747474_a_at) / RFU ABCC12 (11746883_a_at) / Fold change /veh ABCC12 (11746883_a_at) / RFU TMEM136 (11760407_x_at) / Fold change /veh TMEM136 (11760407_x_at) / RFU CLDN22 /// WWC2 (11732394_at) / Fold change /veh CLDN22 /// WWC2 (11732394_at) / RFU HLA-DPB1 (11760878_x_at) / Fold change /veh HLA-DPB1 (11760878_x_at) / RFU SPINT1 (11716480_a_at) / Fold change /veh SPINT1 (11716480_a_at) / RFU GAP43 (11754022_s_at) / Fold change /veh GAP43 (11754022_s_at) / RFU A4GNT (11735810_at) / Fold change /veh A4GNT (11735810_at) / RFU PRB3 (11715151_x_at) / Fold change /veh PRB3 (11715151_x_at) / RFU TUBB4B (11761932_at) / Fold change /veh TUBB4B (11761932_at) / RFU CAPN14 (11732068_a_at) / Fold change /veh CAPN14 (11732068_a_at) / RFU TMCC2 (11721928_a_at) / Fold change /veh TMCC2 (11721928_a_at) / RFU IRGQ (11745062_a_at) / Fold change /veh IRGQ (11745062_a_at) / RFU FAM174B (11720279_a_at) / Fold change /veh FAM174B (11720279_a_at) / RFU TMPRSS4 (11748680_a_at) / Fold change /veh TMPRSS4 (11748680_a_at) / RFU FAM212B (11763350_a_at) / Fold change /veh FAM212B (11763350_a_at) / RFU PLEKHG5 (11743358_a_at) / Fold change /veh PLEKHG5 (11743358_a_at) / RFU ZSCAN30 (11745921_a_at) / Fold change /veh ZSCAN30 (11745921_a_at) / RFU CMKLR1 (11741424_a_at) / Fold change /veh CMKLR1 (11741424_a_at) / RFU LOC101060620 /// MAPK8IP1 (11723275_at) / Fold change /veh LOC101060620 /// MAPK8IP1 (11723275_at) / RFU SPTSSB (11747773_x_at) / Fold change /veh SPTSSB (11747773_x_at) / RFU PRSS12 (11739890_at) / Fold change /veh PRSS12 (11739890_at) / RFU BIN1 (11741810_x_at) / Fold change /veh BIN1 (11741810_x_at) / RFU WNT11 (11732464_a_at) / Fold change /veh WNT11 (11732464_a_at) / RFU C10orf10 (11716521_a_at) / Fold change /veh C10orf10 (11716521_a_at) / RFU C5orf56 (11738089_at) / Fold change /veh C5orf56 (11738089_at) / RFU CYB561 (11721691_x_at) / Fold change /veh CYB561 (11721691_x_at) / RFU ANKRD19P (11752326_a_at) / Fold change /veh ANKRD19P (11752326_a_at) / RFU OR2T12 /// OR2T33 /// OR2T8 (11738714_s_at) / Fold change /veh OR2T12 /// OR2T33 /// OR2T8 (11738714_s_at) / RFU VCAN (11748164_a_at) / Fold change /veh VCAN (11748164_a_at) / RFU JSRP1 (11732532_at) / Fold change /veh JSRP1 (11732532_at) / RFU KRTAP10-11 (11738290_x_at) / Fold change /veh KRTAP10-11 (11738290_x_at) / RFU MYO3A (11730013_a_at) / Fold change /veh MYO3A (11730013_a_at) / RFU EBF3 (11725865_a_at) / Fold change /veh EBF3 (11725865_a_at) / RFU CAMK2N1 (11719241_x_at) / Fold change /veh CAMK2N1 (11719241_x_at) / RFU C5orf56 (11738088_a_at) / Fold change /veh C5orf56 (11738088_a_at) / RFU OLFML3 (11715873_a_at) / Fold change /veh OLFML3 (11715873_a_at) / RFU LOC100653217 /// NTM (11731650_a_at) / Fold change /veh LOC100653217 /// NTM (11731650_a_at) / RFU MAPK11 (11762145_a_at) / Fold change /veh MAPK11 (11762145_a_at) / RFU FIZ1 (11724087_x_at) / Fold change /veh FIZ1 (11724087_x_at) / RFU OASL (11726364_x_at) / Fold change /veh OASL (11726364_x_at) / RFU SOX15 (11748057_x_at) / Fold change /veh SOX15 (11748057_x_at) / RFU CD79A (11719716_a_at) / Fold change /veh CD79A (11719716_a_at) / RFU HIST1H1D (11736915_at) / Fold change /veh HIST1H1D (11736915_at) / RFU CASKIN2 (11723855_a_at) / Fold change /veh CASKIN2 (11723855_a_at) / RFU LOC730098 (11760151_x_at) / Fold change /veh LOC730098 (11760151_x_at) / RFU OR4N2 (11742367_at) / Fold change /veh OR4N2 (11742367_at) / RFU PRRT2 (11749266_a_at) / Fold change /veh PRRT2 (11749266_a_at) / RFU SNX32 (11753110_a_at) / Fold change /veh SNX32 (11753110_a_at) / RFU CDHR5 (11726645_a_at) / Fold change /veh CDHR5 (11726645_a_at) / RFU RCAN1 (11760418_a_at) / Fold change /veh RCAN1 (11760418_a_at) / RFU FAM167A (11723789_a_at) / Fold change /veh FAM167A (11723789_a_at) / RFU FAM26E (11764081_at) / Fold change /veh FAM26E (11764081_at) / RFU ISYNA1 (11749810_s_at) / Fold change /veh ISYNA1 (11749810_s_at) / RFU ACY1 (11761880_at) / Fold change /veh ACY1 (11761880_at) / RFU 11764098_at / Fold change /veh 11764098_at / RFU SAMD14 (11745864_x_at) / Fold change /veh SAMD14 (11745864_x_at) / RFU NPB (11741838_a_at) / Fold change /veh NPB (11741838_a_at) / RFU TMPRSS6 (11731388_a_at) / Fold change /veh TMPRSS6 (11731388_a_at) / RFU KRTAP10-2 (11738614_at) / Fold change /veh KRTAP10-2 (11738614_at) / RFU ARHGAP8 /// PRR5-ARHGAP8 (11727945_x_at) / Fold change /veh ARHGAP8 /// PRR5-ARHGAP8 (11727945_x_at) / RFU KRTAP5-7 /// NADSYN1 (11734609_at) / Fold change /veh KRTAP5-7 /// NADSYN1 (11734609_at) / RFU RASL12 (11751679_a_at) / Fold change /veh RASL12 (11751679_a_at) / RFU CDKN2B (11736163_a_at) / Fold change /veh CDKN2B (11736163_a_at) / RFU PRF1 (11729649_at) / Fold change /veh PRF1 (11729649_at) / RFU, ZNF638 /// ZNF638-IT1 / Fold change vs veh, ZNF638 /// ZNF638-IT1 / RFU, PANK3 / Fold change vs veh, PANK3 / RFU, SH3YL1 / Fold change vs veh, SH3YL1 / RFU, ZEB2 / Fold change vs veh, ZEB2 / RFU, NRIP1 / Fold change vs veh, NRIP1 / RFU, PTTG1IP / Fold change vs veh, PTTG1IP / RFU, CAPN2 / Fold change vs veh, CAPN2 / RFU, MED14 / Fold change vs veh, MED14 / RFU, SNORA58 / Fold change vs veh, SNORA58 / RFU, C1orf63 / Fold change vs veh, C1orf63 / RFU, LRRFIP1 / Fold change vs veh, LRRFIP1 / RFU, NDUFAF7 / Fold change vs veh, NDUFAF7 / RFU, SLC12A2 / Fold change vs veh, SLC12A2 / RFU, IBTK / Fold change vs veh, IBTK / RFU, ESF1 / Fold change vs veh, ESF1 / Fold change vs veh, TMEM50B / RFU, TAOK1 / Fold change vs veh, TAOK1 / RFU, ACBD3 / Fold change vs veh, ACBD3 / RFU, TMA16 / Fold change vs veh, TMA16 / RFU, RWDD3 / Fold change vs veh, RWDD3 / RFU, BCAT1 / Fold change vs veh, BCAT1 / RFU, EDEM3 / Fold change vs veh, EDEM3 / RFU, TMEM33 / Fold change vs veh, TMEM33 / RFU, WDR75 / Fold change vs veh, WDR75 / RFU, AHCTF1 / Fold change vs veh, AHCTF1 / RFU, TFRC / Fold change vs veh, TFRC / RFU, ZDHHC17 / Fold change vs veh, ZDHHC17 / RFU, NOM1 / Fold change vs veh, NOM1 / RFU, ARL8B / Fold change vs veh, ARL8B / RFU, ZBTB11 / Fold change vs veh, ZBTB11 / RFU, TAMM41 / Fold change vs veh, TAMM41 / RFU, KIAA1704 /// LOC100996395 / Fold change vs veh, KIAA1704 /// LOC100996395 / RFU, ING1 / Fold change vs veh, ING1 / RFU, TRMT61B / Fold change vs veh, TRMT61B / RFU, FUBP3 / Fold change vs veh, FUBP3 / RFU, TP53 / Fold change vs veh, TP53 / RFU, TNKS2 / Fold change vs veh, TNKS2 / RFU, ZFP14 / Fold change vs veh, ZFP14 / RFU, ACTR2 / Fold change vs veh, ACTR2 / RFU, PPP3R1 / Fold change vs veh, PPP3R1 / RFU, PIK3R1 / Fold change vs veh, PIK3R1 / RFU, HNRNPA1 / Fold change vs veh, HNRNPA1 / RFU, RNF170 / Fold change vs veh, RNF170 / RFU, ZNF28 / Fold change vs veh, ZNF28 / RFU, RNGTT / Fold change vs veh, RNGTT / RFU, OGT / Fold change vs veh, OGT / RFU, BRD1 / Fold change vs veh, BRD1 / RFU, MARS / Fold change vs veh, MARS / RFU, ZNF655 / Fold change vs veh, ZNF655 / RFU, FAHD1 / Fold change vs veh, FAHD1 / RFU, BDP1 / Fold change vs veh, BDP1 / RFU, LRRCC1 / Fold change vs veh, LRRCC1 / RFU, ARID1A / Fold change vs veh, ARID1A / RFU, ZNF146 / Fold change vs veh, ZNF146 / RFU, ZNF330 / Fold change vs veh, ZNF330 / RFU, GPN3 / Fold change vs veh, GPN3 / RFU, C9orf123 / Fold change vs veh, C9orf123 / RFU, N4BP2L2 / Fold change vs veh, N4BP2L2 / RFU, ARFIP1 / Fold change vs veh, ARFIP1 / RFU, FAM179B / Fold change vs veh, FAM179B / RFU, BCL10 / Fold change vs veh, BCL10 / RFU, UHRF1BP1L / Fold change vs veh, UHRF1BP1L / RFU, BET1 / Fold change vs veh, BET1 / RFU, CNOT2 / Fold change vs veh, CNOT2 / RFU, ZNF268 / Fold change vs veh, ZNF268 / Fold change vs veh, ZNF507 / RFU, DGCR2 / Fold change vs veh, DGCR2 / RFU, WDSUB1 / Fold change vs veh, WDSUB1 / Fold change vs veh, HSP90B1 /// MIR3652 / RFU, ADSS / Fold change vs veh, ADSS / RFU, GK / Fold change vs veh, GK / RFU, ZNF148 / Fold change vs veh, ZNF148 / RFU, TAF9 / Fold change vs veh, TAF9 / RFU, SLC1A5 / Fold change vs veh, SLC1A5 / RFU, SLMO2 / Fold change vs veh, SLMO2 / RFU, ABCC4 / Fold change vs veh, ABCC4 / RFU, LOC101060439 /// RAP1B / Fold change vs veh, LOC101060439 /// RAP1B / RFU, RFX7 / Fold change vs veh, RFX7 / RFU, GTPBP10 / Fold change vs veh, GTPBP10 / RFU, CNEP1R1 / Fold change vs veh, CNEP1R1 / RFU, BIVM-ERCC5 /// ERCC5 / Fold change vs veh, BIVM-ERCC5 /// ERCC5 / RFU, ILF3 / Fold change vs veh, ILF3 / RFU 11762660_at / Fold change /veh 11762660_at / RFU VCAN (11757783_s_at) / Fold change /veh VCAN (11757783_s_at) / RFU DDX43 (11728927_at) / Fold change /veh DDX43 (11728927_at) / RFU KRT8 (11758188_x_at) / Fold change /veh KRT8 (11758188_x_at) / RFU NKD1 (11759106_at) / Fold change /veh NKD1 (11759106_at) / RFU SRD5A1 (11742802_a_at) / Fold change /veh SRD5A1 (11742802_a_at) / RFU TPSAB1 /// TPSB2 (11721975_s_at) / Fold change /veh TPSAB1 /// TPSB2 (11721975_s_at) / RFU GSTM3 (11746129_a_at) / Fold change /veh GSTM3 (11746129_a_at) / RFU IL23R (11737362_x_at) / Fold change /veh IL23R (11737362_x_at) / RFU TMEM51 (11727254_a_at) / Fold change /veh TMEM51 (11727254_a_at) / RFU PIWIL2 (11732686_x_at) / Fold change /veh PIWIL2 (11732686_x_at) / RFU ORM1 (11744905_x_at) / Fold change /veh ORM1 (11744905_x_at) / RFU CCDC152 (11743942_at) / Fold change /veh CCDC152 (11743942_at) / RFU ECM1 (11717891_a_at) / Fold change /veh ECM1 (11717891_a_at) / RFU IL23R (11748794_a_at) / Fold change /veh IL23R (11748794_a_at) / RFU TNFAIP8L3 (11732012_x_at) / Fold change /veh TNFAIP8L3 (11732012_x_at) / RFU MBOAT4 (11741988_at) / Fold change /veh MBOAT4 (11741988_at) / RFU 11764193_at / Fold change /veh 11764193_at / RFU TMEM53 (11763286_at) / Fold change /veh TMEM53 (11763286_at) / RFU MAGEB2 (11727129_at) / Fold change /veh MAGEB2 (11727129_at) / RFU TMEM200A (11744735_a_at) / Fold change /veh TMEM200A (11744735_a_at) / RFU CCDC152 (11751479_a_at) / Fold change /veh CCDC152 (11751479_a_at) / RFU FAM211A (11726209_a_at) / Fold change /veh FAM211A (11726209_a_at) / RFU RGS16 (11746705_a_at) / Fold change /veh RGS16 (11746705_a_at) / RFU VCAN (11755009_s_at) / Fold change /veh VCAN (11755009_s_at) / RFU RHOB (11743442_s_at) / Fold change /veh RHOB (11743442_s_at) / RFU RGS16 (11720943_a_at) / Fold change /veh RGS16 (11720943_a_at) / RFU RGS16 (11720944_at) / Fold change /veh RGS16 (11720944_at) / RFU, VPS4B / Fold change vs veh, VPS4B / RFU, CREB1 / Fold change vs veh, CREB1 / RFU, DNAJC13 / Fold change vs veh, DNAJC13 / RFU, GNAQ / Fold change vs veh, GNAQ / RFU, CDK5R1 / Fold change vs veh, CDK5R1 / RFU, ZRANB3 / Fold change vs veh, ZRANB3 / RFU, CUL4A / Fold change vs veh, CUL4A / RFU, CCNY / Fold change vs veh, CCNY / RFU, UFL1 / Fold change vs veh, UFL1 / RFU, COG3 / Fold change vs veh, COG3 / RFU, DIAPH2 / Fold change vs veh, DIAPH2 / RFU, SKA2 / Fold change vs veh, SKA2 / RFU, AFF3 / Fold change vs veh, AFF3 / RFU, LMF1 / Fold change vs veh, LMF1 / RFU, IPO11 / Fold change vs veh, IPO11 / RFU, DFFB / Fold change vs veh, DFFB / RFU, FOXP1 / Fold change vs veh, FOXP1 / RFU, CARD8 / Fold change vs veh, CARD8 / RFU, STRN3 / Fold change vs veh, STRN3 / RFU, ADK / Fold change vs veh, ADK / RFU, RASSF2 / Fold change vs veh, RASSF2 / RFU, WIPF1 / Fold change vs veh, WIPF1 / RFU, LARP1B / Fold change vs veh, LARP1B / RFU, RASA1 / Fold change vs veh, RASA1 / RFU, RB1 / Fold change vs veh, RB1 / RFU, PPFIA1 / Fold change vs veh, PPFIA1 / RFU, MAT2A / Fold change vs veh, MAT2A / RFU, CCT5 / Fold change vs veh, CCT5 / RFU, WDR92 / Fold change vs veh, WDR92 / RFU, CUX1 / Fold change vs veh, CUX1 / RFU, TTC7A / Fold change vs veh, TTC7A / RFU, TMEM135 / Fold change vs veh, TMEM135 / RFU, DEPTOR / Fold change vs veh, DEPTOR / RFU, CPM / Fold change vs veh, CPM / RFU, DNAJB6 / Fold change vs veh, DNAJB6 / RFU, CACNA2D3 / Fold change vs veh, CACNA2D3 / RFU, DTX4 / Fold change vs veh, DTX4 / RFU, TFCP2 / Fold change vs veh, TFCP2 / RFU, GMCL1 /// GMCL1P1 / Fold change vs veh, GMCL1 /// GMCL1P1 / RFU, AEBP2 / Fold change vs veh, AEBP2 / RFU, SNHG1 /// SNORD22 /// SNORD25 /// SNORD26 /// SNORD27 /// SNORD28 /// SNORD29 /// SNORD31 / Fold change vs veh, SNHG1 /// SNORD22 /// SNORD25 /// SNORD26 /// SNORD27 /// SNORD28 /// SNORD29 /// SNORD31 / Fold change (Aza/veh), C12orf56 (ProbeSet 11735607_a_at) / Fold change (ACY-1035/veh), C12orf56 (ProbeSet 11735607_a_at) / Fold change (Aza/veh), FGFR1OP (ProbeSet 11751329_s_at) / Fold change (ACY-1035/veh), FGFR1OP (ProbeSet 11751329_s_at) / Fold change (Aza/veh), VPS36 (ProbeSet 11739960_a_at) / Fold change (ACY-1035/veh), VPS36 (ProbeSet 11739960_a_at) / RFU SYPL1 (11715823_x_at) / Fold change /veh SYPL1 (11715823_x_at) / RFU IGFBP7 (11715501_s_at) / Fold change /veh IGFBP7 (11715501_s_at) / RFU REEP3 (11722064_at) / Fold change /veh REEP3 (11722064_at) / RFU IGLL1 (11728026_x_at) / Fold change /veh IGLL1 (11728026_x_at): dose or concentration left out as unconfirmed
Conditions: MV-4-11 cells, 48 hours

Compound: Nc1ccc(-c2cccs2)cc1NC(=O)c1ccc2c(c1)cc(C1CC1)n2CCN1CCOCC1 [ACY-1035]
- RFU TNFAIP8L3 (11732012_x_at): 8.37 RFU
